# Literature values as cited in PMC10855781 (International Journal of Molecular Sciences, 2024).
# Entries after “also recorded” stand apart in the source; their conditions may differ. Read-outs that look alike come from different tables or passages of the source.
# Legend:
# [1] = tested on: PC-3 human prostatic adenocarcinoma; parameters: method as in PMID 36834815; conditions: s.c. PC-3, ref [84]
# Source text: This 14-mer peptide (Glp-[…]NH2), first discovered in the skin of the frog Bombina bombina, is associated with the gastrin-releasing peptide (GRP) as a mammalian counterpart. The bombesin receptor family comprises neuromedin receptor B (NMB-R, or BB1), gastrin-releasing peptide receptor (GRP-R, or BB2) and bombesin receptor subtype 3 (BRS-3, or BB3). Among them, GRP-R has been the most investig ...
# PC3 cells = conditions: ref [84], read-out: cytostatic effect (IC50)
# Source text: (§1) Table 4 In vitro and in vivo activity of bombesin analog–daunomycin conjugates on PC3 cells. | column: L1: Dau=Aoa-LRRY- […]le-NH2; L5: Dau=Aoa-LRRY- fQWAVGHStaL-NH2; L6: Dau=Aoa-LRRY- fQWAVβAlaHStaNle-NH2
# PC3 cancer cell lines = conditions: PC3, 1.5 h incubation; concentration for internalization of 50% of the conjugate in living cells; ref [84]; read-out: cellular uptake (UC50)
# Source text: as §1
# lysosomal homogenate = conditions: up to 72 h
# [2] = tested on: human breast adenocarcinoma (MCF-7); conditions: ref [75]
# Source text: Table 2 Comparative study of cytotoxic effects and cardiotoxicity elicited by selected GnRH-based anthracycline conjugates. | column: IC50 Values (μM)
# [3] = tested on: human umbilical vein endothelial cells (HUVEC); parameters: key: 0: no cardiotoxicity; +: weak; ++: moderate; +++: strong cardiotoxicity; conditions: long-term (0–72 h) cytotoxic effect, impedimetric; ref [75]
# Source text: Table 2 Comparative study of cytotoxic effects and cardiotoxicity elicited by selected GnRH-based anthracycline conjugates. | column: Cardiotoxicity
# [4] = tested on: Human cardiac myocytes (HCM); parameters: key: 0: no cardiotoxicity; +: weak; ++: moderate; +++: strong cardiotoxicity; conditions: long-term (0–72 h) cytotoxic effect, impedimetric; ref [75]
# Source text: Table 2 Comparative study of cytotoxic effects and cardiotoxicity elicited by selected GnRH-based anthracycline conjugates. | column: Cardiotoxicity || The main drug-related toxic side effect of anthracyclines is cardiotoxicity, leading to cardiomyopathy and heart failure. Comparative experiments to determine the cardiotoxicity of peptide–anthracycline conjugates with different linkages might be informative for the other conjugates with different types of drugs as well. For this purpose, human cardiomyocytes (HCM) and human umbilical vein endothelial cells (HUVEC) were used as models. The long-term (0–72 h) cytotoxic effect of sixteen GnRH-based conjugates containing Dox and Dau was determined by real-time impedimetric sensing using th ...
# [5] = tested on: human colorectal adenocarcinoma (HT-29); conditions: Table 2; ref [75]
# Source text: Table 2 Comparative study of cytotoxic effects and cardiotoxicity elicited by selected GnRH-based anthracycline conjugates. || Table 3 In vivo tumor growth inhibition of a few relevant Dau-GnRH-III conjugates. | column: Cytostatic Effect (IC50: μM) on HT-29 cells
# [6] = tested on: different cancer cell lines, e.g. HT-29; conditions: ref [18]
# Source text: In our group, we synthesized conjugates based on a heptapeptide (VHLGYAT) selected by Zhang et al. and tested them on HT-29 human colon adenocarcinoma. Since sequence modification may result in different oxime-linked Dau-amino acid fragments, a cathepsin B- labile spacer was incorporated to the N-terminal of the homing peptide. From the parent compound (Dau=Aoa-LRRY-VHLGYAT-NH2), the potential positions that can be substituted were selected using Ala-scan.
# HT-29 tumor = conditions: mouse, in vivo
# Description: In our group, we synthesized conjugates based on a heptapeptide (VHLGYAT) selected by Zhang et al. and tested them on HT-29 human colon adenocarcinoma. Since sequence modification may result in different oxime-linked Dau-amino acid fragments, a cathepsin B- labile spacer was incorporated to the N-terminal of the homing peptide. From the parent compound (Dau=Aoa-LRRY-VHLGYAT-NH2), the potential positions that can be substituted were selected using Ala-scan. […] Statistical analysis was performed by Mann-Whitney test. *, ** and *** mean significant at p < 0.05, p < 0.01 and p < 0.001, respectively. Adapted with permission from ref. [18]. 2019, Elsevier. TEXT PRINTED IN THE PICTURE: (a) Dau: Tumour weight (g): 16% | (a) Parent: Tumour weight (g): 35% | (a) G/F exchange: Tumour weight (g): 11% | (b) Dau: Liver weight (g): 72% | (b) Parent: Liver weight (g): 101% | (b) G/F exchange: Liver weight (g): 90% | (c) Dau: Prol ...
# [7] = rat liver lysosomal homogenate; conditions: up to 6 h
# [8] = lysosomal homogenate; Dau=Aoa-Gly-OH, Dau=Aoa-Gly-Phe-OH, H-Lys(Dau=Aoa)-OH; ref [110]
# PANC-1 tumor = conditions: ref [110]; for tumor growth inhibition by tumor volume: eighteen treatments, day 74
# Description: The in vivo tumor growth inhibitory effect of the conjugate and free Dau was investigated on s.c.-developed PANC-1 tumor-bearing SCID female mice. The free drug was applied once a week at a maximum tolerated dose of 1 mg/kg body weight (three treatments), while the conjugate was administered, on average, three times per a week either at a 2 mg/kg or 10 mg/kg dose, calculated as per the Dau content (eighteen treatments altogether). The first treatment was given on day 10 after tumor inoculation. After the third treatment with free Dau, the animals lost 20% of their weight; therefore, the mice i ...
# [9] = tested on: normal human dermal fibroblast (NHDF); conditions: 10 μM, 72 h treatment, ref [110]
# Description: (§2) We assessed a modified version of this peptide as a homing device, where Cys was replaced by Ser because the thiol group is not necessary to introduce an oxime linkage. […] Using this conjugate at 10 μM concentration, the cell viability of the PANC-1 cells was 0.1% after a 72 h treatment. In contrast, the cell viability of normal human dermal fibroblast (NHDF), a model of healthy cells, was roughly 75%, showing a significa ...
# [10] = tested on: PANC-1 (human pancreas adenocarcinoma); conditions: 10 μM, 72 h treatment, ref [110]
# Description: as §2
molecule,measurement,setting,value
Dau=Aoa-LRRY- fQWAVβAlaHStaNle-NH2 [L6],tumor volume inhibition,"[1]; i.p. 10 mg Dau-content/kg every fifth day from day 9, five treatments, day 33, Dau 1 mg/kg, terminated day 26",31.4%
same,tumor weight inhibition,"[1]; i.p. 10 mg Dau-content/kg, five treatments, day 33",33.1%
same,tumor DT enhancement,"[1]; tumor doubling time, 10 mg Dau-content/kg",11.5%
same,IC50,PC3 cells,18 ± 3.01 µM
same,EC50,PC3 cancer cell lines,16.1 µM
Dau=Aoa-GFLG-K(Dau=Aoa)SKAAKN-OH [listing 1 of 2 here],fragment found,lysosomal homogenate,"Dau=Aoa-Gly-Phe-OH, within 72 h; also recorded: H-Lys(Dau=Aoa)-OH, within 72 h"
NH2-TFFYGGSRGKRNNFKTEEY-CONH2,fragment found,lysosomal homogenate,"H-Lys(Dau=Aoa)-OH, major, within 1 h"
"COc1cccc2c1C(=O)c1c(O)c3c(c(O)c1C2=O)C[C@@](O)(C(=O)CO)C[C@@H]3O[C@H]1C[C@H](N)[C@H](O)[C@H](C)O1 [doxorubicin (Dox), doxorubicin]",IC50,[2],0.1 µM
same,"Cardiotoxicity, HUVEC",[3],+++
same,"Cardiotoxicity, HCM",[4],+++
same,IC50,[5],0.1 µM
Dau=Aoa-LRRY-VHLFYAT-NH2,"in vitro cytostasis, times higher activity than the parent conjugate",[6]; different cancer cell lines,2–5 times
same,"in vitro cytostasis, times higher activity than the parent conjugate",[6]; on HT-29,up to 2.6 times
same,"Liver weight, percent label in Figure 5b",HT-29 tumor,90%
Dau=Aoa-LRRY- QWAVGHLNle-NH2,fragment found,[7],"Dau=Aoa-Leu-OH, less than 30 min"
N-O-CH2-CO-TFFYGGSRGKRNNFKTEEY-CONH2,fragment found,lysosomal homogenate,"Dau=Aoa-Thr-OH, major, within 1 h"
Dau=Aoa-GFLG-K(Dau=Aoa)SKAAKN-OH [listing 2 of 2 here],time of release of three drug-containing metabolites,[8],≤ 72 h
same,tumor growth inhibition by tumor volume,PANC-1 tumor; 2 mg/kg (Dau content),14%
same,tumor weight reduction,PANC-1 tumor; 2 mg/kg (Dau content),27.3%
same,tumor growth inhibition by tumor volume,PANC-1 tumor; 10 mg/kg (Dau content),32.2%
same,tumor weight reduction,PANC-1 tumor; 10 mg/kg (Dau content),30.4%
same,toxic side effects,PANC-1 tumor; 2 or 10 mg/kg Dau content,No toxic side effects
same,highest tumor inhibition rate,"PANC-1 tumor; day 67, after 16 treatments, dose not stated",43%
same,cell viability,[9],roughly 75%
same,cell viability,[10],0.1%
Dau=Aoa-LRRY- fQWAVβAlaHStaNle-NH2,fragment found,[7],"Dau=Aoa-Leu-OH, less than 30 min"
Dau=Aoa-LRRY- QWAVGHLNle-NH2 [L1],IC50,PC3 cells,4.38 ± 0.33 µM
same,EC50,PC3 cancer cell lines,22.9 µM
Dau=Aoa-LRRY- fQWAVGHStaL-NH2,fragment found,[7],"Dau=Aoa-Leu-OH, less than 30 min"
